According to patent publication US7713994B2 (Wyeth LLC, priority 2005, dated 2010):
Like-named read-outs stand apart in the source and are kept apart here.

Assays:
HCT-116 = experiment: Cytotoxicity assay (SRB), HCT-116; assay type: cell-based; conditions: Homo sapiens, HCT-116, 72 h, read-out: In Vitro Cellular Activity IC50 HCT116
Method in brief: (§1)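 Cells were seeded overnight in RPMI 1640 with 5% FBS at 37 °C, 7% CO2 (12000/well BT474, 4000 HCT-116, 6000 LoVo, 6000 MCF-7), then exposed to compound dilutions for 3 days (6 days for BT474). Survival versus untreated controls was measured by TCA fixation and SRB staining at 540 nm.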

BT474 = experiment: Cytotoxicity assay (SRB), BT474; assay type: cell-based; conditions: Homo sapiens, BT-474, 144 h, read-out: In Vitro Cellular Activity IC50 BT474
Method in brief: as §1

LoVo = experiment: Cytotoxicity assay (SRB), LoVo; assay type: cell-based; conditions: Homo sapiens, LoVo, 72 h, read-out: In Vitro Cellular Activity IC50 LOVO
Method in brief: as §1

MCF-7 = experiment: Cytotoxicity assay (SRB), MCF-7; assay type: cell-based; conditions: Homo sapiens, MCF7, 72 h, read-out: In Vitro Cellular Activity IC50 MCF-7
Method in brief: as §1

cyclin B/CDK1 enzyme = target: T1, cyclin B/CDK1 enzyme (Homo sapiens, UniProt P06493); experiment: CDK1 ELISA kinase assay (phospho-Rb ser 795 detection); assay type: biochemical
T1 construct: purchased New England BioLabs; host or cells: Sf9 insect cells, recombinant baculovirus
T1 sequence (P06493 whole entry): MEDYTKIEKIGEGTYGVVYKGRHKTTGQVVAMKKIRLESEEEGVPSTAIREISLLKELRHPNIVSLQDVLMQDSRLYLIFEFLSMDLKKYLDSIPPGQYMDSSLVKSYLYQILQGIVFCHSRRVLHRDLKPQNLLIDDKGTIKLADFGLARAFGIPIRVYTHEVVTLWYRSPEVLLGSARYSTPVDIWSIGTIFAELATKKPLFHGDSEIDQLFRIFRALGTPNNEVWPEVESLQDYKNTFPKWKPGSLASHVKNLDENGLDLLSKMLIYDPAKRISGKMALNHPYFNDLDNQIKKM
T1 sequence (P14635 whole entry partner): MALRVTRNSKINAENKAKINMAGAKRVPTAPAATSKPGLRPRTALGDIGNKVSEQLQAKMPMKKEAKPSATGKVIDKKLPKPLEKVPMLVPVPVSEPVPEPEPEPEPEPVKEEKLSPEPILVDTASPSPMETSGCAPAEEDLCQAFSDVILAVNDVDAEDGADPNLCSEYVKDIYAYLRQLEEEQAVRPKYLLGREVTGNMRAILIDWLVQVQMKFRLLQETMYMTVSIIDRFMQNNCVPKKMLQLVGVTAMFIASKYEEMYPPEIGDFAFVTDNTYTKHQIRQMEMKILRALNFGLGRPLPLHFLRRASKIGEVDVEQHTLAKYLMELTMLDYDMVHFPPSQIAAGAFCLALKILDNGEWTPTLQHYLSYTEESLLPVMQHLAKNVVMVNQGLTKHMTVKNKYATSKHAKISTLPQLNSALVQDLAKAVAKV
Method in brief: (§2)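 Partially purified Sf9-expressed cyclin D1/CDK4, cyclin E/CDK2 or cyclin B/CDK1 phosphorylated plate-bound GST-Rb C-terminal fragment with 200 μM ATP at 30° C for 1 h.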

cyclin D1/cdk 4 enzyme = target: T2, cyclin D1/cdk 4 enzyme (Homo sapiens, UniProt P11802); experiment: CDK4 ELISA kinase assay (phospho-Rb ser 795 detection); assay type: biochemical
T2 construct: made in house; host or cells: Sf9 insect cells, recombinant baculovirus
T2 sequence (P11802 whole entry, species assumed): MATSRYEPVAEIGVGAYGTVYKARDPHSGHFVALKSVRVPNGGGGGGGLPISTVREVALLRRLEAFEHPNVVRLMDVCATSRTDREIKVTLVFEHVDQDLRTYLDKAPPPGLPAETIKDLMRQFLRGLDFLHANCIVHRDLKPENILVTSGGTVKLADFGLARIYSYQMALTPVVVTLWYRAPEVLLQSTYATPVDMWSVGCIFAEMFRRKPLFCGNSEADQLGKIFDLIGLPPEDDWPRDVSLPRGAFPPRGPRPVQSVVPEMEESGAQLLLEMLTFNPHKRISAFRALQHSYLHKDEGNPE
T2 sequence (P24385 whole entry partner, species assumed): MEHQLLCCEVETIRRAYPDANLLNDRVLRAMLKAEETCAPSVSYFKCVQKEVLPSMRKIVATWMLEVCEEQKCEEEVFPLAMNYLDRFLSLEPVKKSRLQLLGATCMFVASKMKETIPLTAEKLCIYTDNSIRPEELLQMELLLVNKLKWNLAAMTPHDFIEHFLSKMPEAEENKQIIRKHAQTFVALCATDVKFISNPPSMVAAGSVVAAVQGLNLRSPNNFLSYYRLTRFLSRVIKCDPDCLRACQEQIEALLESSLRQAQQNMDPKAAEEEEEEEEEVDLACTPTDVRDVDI
Method in brief: as §2

cyclin E/CDK2 enzyme = target: T3, cyclin E/CDK2 enzyme (Homo sapiens, UniProt P24941); experiment: CDK2 ELISA kinase assay (phospho-Rb ser 795 detection); assay type: biochemical
T3 construct: made in house; host or cells: Sf9 insect cells, recombinant baculovirus
Method in brief: as §2

[1] = In Vitro Enzyme Assays, read-out: CDK1 IC50
[2] = In Vitro Enzyme Assays, 200 μM ATP, read-out: CDK4 IC50
[3] = In Vitro Enzyme Assays, read-out: CDK2 IC50

SMILES | IC50 (HCT-116; HCT116 cells, SRB, three days) [µM] | IC50 (BT474; BT474 cells, SRB, 6 days) [µM] | IC50 (LoVo; LoVo cells, SRB, three days) [µM] | IC50 (MCF-7; MCF-7 cells, SRB, three days) [µM] | melting point [°C] | IC50 (cyclin B/CDK1 enzyme; [1]) [µM] | IC50 (cyclin D1/cdk 4 enzyme; [2]) [µM] | IC50 (cyclin E/CDK2 enzyme; [3]) [µM] | IC50 (HCT-116) [µM] | IC50 (BT474) [µM] | IC50 (LoVo) [µM] | IC50 (MCF-7) [µM] | IC50 (HCT-116; HCT116 cells, 3 days, SRB) [µM] | IC50 (BT474; BT474 cells, 6 days, SRB) [µM] | IC50 (LoVo; LoVo cells, 3 days, SRB) [µM] | IC50 (MCF-7; MCF-7 cells, 3 days, SRB) [µM] | IC50 (cyclin B/CDK1 enzyme; In Vitro Enzyme Assay, cyclin B/CDK1, read-out: CDK1 IC50) [µM] | IC50 (cyclin D1/cdk 4 enzyme; In Vitro Enzyme Assay, cyclin D1/cdk 4, read-out: CDK4 IC50) [µM] | IC50 (cyclin E/CDK2 enzyme; In Vitro Enzyme Assay, cyclin E/CDK2, read-out: CDK2 IC50) [µM]
COC(=O)Oc1ccc(CN/C=C2\C(=O)NC(=O)c3ccc(Br)cc32)cc1OC(=O)OC [Example 76, Carbonic acid 5-{[(6-bromo-1,3-dioxo-2,3-dihydro-1H-isoquinolin-4-ylidenemethyl)-amino]-methyl}-2-methoxycarbonyloxy-phenyl ester methyl ester] | 5 | 5.5 | 5.9 | 9.1 | 239 to 240 | 40.7 | 0.39 | > 50 |  |  |  |  |  |  |  |  |  |  | 
O=C1NC(=O)c2ccc(Br)cc2/C1=C/Nc1ccc(CN2CCCC2)cc1 [Example 59, (4Z)-6-Bromo-4-({[4-(pyrrolidin-1-ylmethyl)phenyl]amino}methylene)isoquinoline-1,3(2H,4H)-dione] |  |  |  |  | 165 to 166 | > 50 | 0.23 | 25.2 | 4.7 | 6.3 | 6.1 | 4.13 |  |  |  |  |  |  | 
CN(C)CCN1CCN(/C=C2\C(=O)NC(=O)c3ccc(Br)cc32)CC1 [Example 106, (4Z)-6-Bromo-4-({4-[2-(dimethylamino)ethyl]piperazin-1-yl}methylene)isoquinoline-1,3(2H,4H)-dione] | > 50 | 44.6 | > 50 | > 50 | 166 to 167 | > 50 | 31.5 | > 50 |  |  |  |  |  |  |  |  |  |  | 
CN(C)C1CCN(Cc2ccc(N/C=C3\C(=O)NC(=O)c4ccc(-c5ccc(F)cc5)cc43)cc2)C1 (centres unmarked) [Example 512, (4Z)-4-{[(4-{[3-(Dimethylamino)pyrrolidin-1-yl]methyl}phenyl)amino]methylene}-6-(4-fluorophenyl)isoquinoline-1,3(2H,4H)-dione] |  |  |  |  | 95 to 96 |  |  |  |  |  |  |  | 1.19 | 2.36 | 3.05 | 2.7 | > 50 | 0.2 | > 50
O=C1NC(=O)c2ccc(Br)cc2/C1=C/NCc1ccc(OCC2CC2)c(O)c1 [Example 219, (4Z)-6-Bromo-4-({[4-(cyclopropylmethoxy)-3-′hydroxybenzyl]amino}methylene)isoquinoline-1,3(2H,4H)-dione] | 2.8 | 1.9 | 6.9 | 32 | 210 to 211 | > 50 | 0.27 | > 50 |  |  |  |  |  |  |  |  |  |  | 
O=C1NC(=O)c2ccc(Br)cc2/C1=C/Nc1ccc(N2CCC(N3CCCC3)CC2)c(F)c1 [Example 405, (4Z)-6-Bromo-4-({[3-fluoro-4-(4-pyrrolidin-1-ylpiperidin-1-yl)phenyl]amino}-methylene)-isoquinoline-1,3(2H,4H)-dione] |  |  |  |  | 204 to 205 | > 50 | 1.8 | > 50 |  |  |  |  | 1.7 | 3.1 | 2 | 5.6 |  |  | 
COc1cc(CN/C=C2\C(=O)NC(=O)c3ccc(-c4ccc(Cl)cc4)cc32)cc(O)c1OC [Example 113, (4Z)-6-(4-Chlorophenyl)-4-{[(3-hydroxy-4,5-dimethoxybenzyl)amino]methylene}isoquinoline-1,3(2H,4H)-dione] | 5.8 | 11 | 2.9 | 6.2 | 240 to 241 | 47.6 | 0.02 | 37.2 |  |  |  |  |  |  |  |  |  |  | 
CCCOc1ccc(CN/C=C2\C(=O)NC(=O)c3ccc(-c4ccc(F)cc4)cc32)cc1O [Example 192, (4Z)-6-(4-Fluorophenyl)-4-{[(3-hydroxy-4-propoxybenzyl)amino]methylene}-isoquinoline-1,3(2H,4H)-dione] | 6.8 | 16 | 40 | 2.4 | 194 to 195 | > 50 | 0.04 | > 50 |  |  |  |  |  |  |  |  |  |  | 
CO[C@@H]1CCN(Cc2ccc(N/C=C3\C(=O)NC(=O)c4ccc(Br)cc43)cc2)C1 [Example 266, (4Z)-6-Bromo-4-{[(4-{[(3R)-3-methoxypyrrolidin-1-yl]methyl}phenyl)amino]methylene}isoquinoline-1,3(2H,4H)-dione] | 6.2 | 9.1 | 8.4 | 4 | 132 to 133 | > 50 | 1.9 | > 50 |  |  |  |  |  |  |  |  |  |  | 
Nc1ccc(CN/C=C2\C(=O)NC(=O)c3ccc(I)cc32)cc1O [Example 122, (4Z)-4-{[(4-Amino-3-hydroxybenzyl)amino]methylene}-6-iodoisoquinoline-1,3(2H,4H)-dione] | 7.5 | 5.2 | 9.9 | 17 | 250 to 251 | 16.1 | 0.04 | 1.6 |  |  |  |  |  |  |  |  |  |  | 
CN1CCN(c2ccc(N/C=C3\C(=O)NC(=O)c4ccc(-c5ccc(F)cc5)cc43)cc2F)CC1 [Example 290, (4Z)-4-({[3-Fluoro-4-(4-methylpiperazin-1-yl)phenyl]amino}methylene)-6-(4-fluorophenyl)isoquinoline-1,3(2H,4H)-dione] | 1.8 | 2.5 | 5.4 | 2.3 | 166 to 167 | > 50 | 0.32 | > 50 |  |  |  |  |  |  |  |  |  |  | 
C[C@@H]1CN(c2ccc(N/C=C3\C(=O)NC(=O)c4ccc(-c5ccoc5)cc43)cc2)C[C@H](C)N1C(=O)CN(C)C [Example 373, (4Z)-4-[({4-[(3R,5S)-4-(N,N-Dimethylglycyl)-3,5-dimethylpiperazin-1-yl]phenyl}amino)methylene]-6-(3-furyl)isoquinoline-1,3(2H,4H)-dione] | 0.75 | 3.5 | 1.9 | 2.1 | 191 to 192 | > 50 | 0.01 | > 50 |  |  |  |  |  |  |  |  |  |  | 
C[C@@H]1CN(c2ccc(N/C=C3\C(=O)NC(=O)c4ccc(-c5ccsc5)cc43)cc2)C[C@H](C)N1C(=O)CN(C)C [Example 380, (4Z)-4-[({4-[(3R,5S)-4-(N,N-Dimethylglycyl)-3,5-dimethylpiperazin-1-yl]phenyl}amino)methylene]-6-thien-3-ylisoquinoline-1,3(2H,4H)-dione] | 0.5 | 9.1 | 8.2 | 3.4 | 198 to 199 | 42.5 | 0.1 | > 50 |  |  |  |  |  |  |  |  |  |  | 
